According to patent publication EP1298214A2, “Plant thioesterases” (Calgene LLC, priority 1990, dated 1991):

Assays:
[1] = test system: pET3a control E. coli lysate; assay: Acyl-ACP hydrolysis by control E. coli lysate (unmodified pET3a); assay type: biochemical; conditions: 1 hour induction with 1mM IPTG
Description: To assay for C12 thioesterase activity the following mixture is incubated at 30° for 30 min: "buffer" comprising 7mM KH2PO4-KOH pH 8, 20% v/v glycerol, 1mM dithiothreitol (DTT), 0.1% v/v Triton X100; sample to be tested for activity in the same or similar buffer as the "extraction buffer" described in Example 2; and 5µl of ^14C-radiolabeled lauroyl-ACP substrate for a total volume of 100µl and final lauroyl-ACP concentration of 0.5µM. Lauroyl-ACP substrate is prepared according to the method of Rock et al (Methods in Enzymology (1981) 72:397-403), using ACP prepared from Escherichia coli by the method of Rock and Cronan (Methods in Enzymology (1981) 71:341-351). The laurate is radiolabeled in the carboxylate group at a specific radioactivity of 50-60µCi/µmol.
The reaction is stopped by adding 0.5ml cold (0°) 10% v/v acetic acid. The fatty acid product of the hydrolytic enzyme action is extracted away from the unhydrolyzed substrate by adding 1ml diethyl ether and mixing vigorously. After settling for a few minutes the upper ether layer is transferred to 5ml scintillation fluid for determination of radioactivity by liquid scintillation spectrometry. Additional ether extractions may be performed to recover remaining traces of the reaction product for more accurate quantitation of the enzyme activity if desired. The amount of ether-extracted radioactivity is a direct measure of C12-preferring acyl-ACP thioesterase activity, provided the amount of enzyme is not sufficient to hydrolyze more than about 25% of the substrate. With greater activity than this the relationship between radioactivity in the ether layer and the quantity of enzyme becomes markedly nonlinear. The enzyme preparation must then be diluted appropriately to bring the activity into the linear range of the assay.
A pET3a vector (Rosenberg, et al., Gene (1987) 56:125-135) is used in an E. coil strain BL21 (PE3) (Studier and Moffat, J. Mol. Biol. (1986) 189:113-130) host for this study. The pET3a vector contains a promoter and 33 bp of the 5' reading frame of bacteriophase T7. T7 polymerase is under the regulatory control of an isopropyl-b-D-thiogalactopyranoside (IPTG)-inducible lac UV5 promoter found in the E. coli BL21 (DE3) strain. Thus, by the addition of IPTG to E. coli BL21 (DE3) transformed with pET3a, the T7 promoter will be activated.
Constructs are prepared containing the truncated cDNA of Fig. 2 fused in reading frame by deletion of the BamHI/EcoRI fragment and replacement of the thioesterase sequence. E. coli are transformed with pET3a constructs containing the thioesterase (pET3a-THI0) and unmodified pET3a as a control. The E. coli are grown at 37°C in liquid medium and expression is induced by the addition of 1mM IPTG. […]

[2] = test system: Cuphea C10-preferring acyl-ACP thioesterase (preparation from Example 9C); assay: Acyl-ACP hydrolysis by the Cuphea preparation from Example 9C; assay type: biochemical, Cuphea hookeriana; conditions: 0.5µM acyl-ACP, pH 9, 30°C for 60 min; corrected for non-enzymatic hydrolysis
Description: As a more preferred alternative to Example 9A or 9B, forty grams of polyvinylpolypyrrolidone (PVPP) are mixed with 550 ml "extraction buffer" comprising 200 mM bis-Tris-HCl pH 6., 10mM 2-mercaptoethanol, 1% (w/v) polyvinylpyrrolidone-10. To this mixture are added 40g frozen Cuphea seeds. The mixture is then blended in a Polytron homogenizer until no intact seeds remain and the slurry is smooth. This and all subsequent steps are conducted at 0-4°C. The preparation is centrifuged at 12,000xg for 20 min and further clarified by filtration through Miracloth.
This preparation is mixed with 100ml of settled hydroxyapatite which has been equilibrated with "buffer A" (50mM bis-Tris-HCl pH 6., […] 2-mercaptoethanol). Three extract volumes of 10mM 2-mercaptoethanol are then added slowly over 30 min, with constant stirring. The hydroxyapatite gel is collected on a sintered glass funnel and rinsed with buffer A until the effluent is colorless. The collected hydroxyapatite is then transferred to a column and further rinsed with buffer A at 2ml/min until the column is packed. A 400ml elution gradient is applied (2ml/min), from buffer A to buffer B (300mM potassium phosphate pH 6.9 in buffer A). Effluent fractions are assayed for hydrolysis of 10:0-ACP. Two overlapping peaks of activity are obtained. The fractions comprising the later-eluting peak are pooled and dialyzed against buffer A.
The dialyzed material is applied at 1.3ml/min to a 2.5 x 6.5cm column of Blue 4 Agarose (Sigma Chemical Co.; St. Louis, MO) equilibrated with buffer A. The column is washed with buffer A, and enzyme activity is subsequently eluted with a 400ml gradient from buffer A to buffer C (buffer A containing 1M NaCl). The eluted fractions contain three peaks of 10:0-ACP hydrolysis activity. Those fractions comprising the second peak to elute (eluted by approximately 0.4m NaCl) are pooled and dialyzed against buffer A. […]
The preparation from Example 9C is relatively selective in its hydrolysis of acyl-ACP thioesters, as shown in the following table: (These activities were determined as follows. Twenty five µl of sample were added to 75µl assay buffer comprising 100mM glycine-KOH pH 9, 0.2% (w/v) CHAPS, 10mM 2-mercaptoethanol, and containing radiolabeled acyl-ACP for a final concentration of 0.5µM. After incubation at 30°C for 60 min, the reaction was terminated by addition of 0.5ml 10% (v/v) acetic acid, and the liberated fatty acid product was extracted with 1ml diethyl ether. Enzyme activity was measured by the radioactivity of this ether extract, determined by liquid scintillation counting. […]

Substance	Hydrolysis Activity (mean cpm in ether extract) [1]	Activity [2]
14:0-ACP	1271 cpm	30 cpm
16:0-ACP	2848 cpm	262 cpm
decanoyl-ACP [10:0-ACP]	787 cpm	1010 cpm
lauroyl-ACP [12:0-ACP]	1028 cpm	393 cpm
